Measured values as given in ChEMBL document CHEMBL5252602, “Identification and in silicon binding study of a novel NR2B selective NMDAR antagonist” (Bioorg Med Chem Lett, 2023).

Key:
[1] = system: SH-SY5Y; assay: Neuroprotective activity against human SH-SY5Y cells assessed as effect on NMDA mediated cell damage at 0.5 uM by MTT assay relative to control; assay type: functional
[2] = system: SH-SY5Y; assay: Neuroprotective activity against human SH-SY5Y cells assessed as effect on NMDA mediated cell damage at 5 uM by MTT assay relative to control; assay type: functional
[3] = system: SH-SY5Y; assay: Neuroprotective activity against human SH-SY5Y cells assessed as effect on NMDA mediated cell damage at 0.05 uM by MTT assay relative to control; assay type: functional
[4] = target: Glutamate receptor ionotropic, NMDA 2B (Homo sapiens, UniProt Q05586+Q13224); assay: Antagonist activity at NMDA receptor NR2B subunit (unknown origin)
Sequence of Glutamate receptor ionotropic, NMDA 2B (Q13224 whole entry, one chain of several): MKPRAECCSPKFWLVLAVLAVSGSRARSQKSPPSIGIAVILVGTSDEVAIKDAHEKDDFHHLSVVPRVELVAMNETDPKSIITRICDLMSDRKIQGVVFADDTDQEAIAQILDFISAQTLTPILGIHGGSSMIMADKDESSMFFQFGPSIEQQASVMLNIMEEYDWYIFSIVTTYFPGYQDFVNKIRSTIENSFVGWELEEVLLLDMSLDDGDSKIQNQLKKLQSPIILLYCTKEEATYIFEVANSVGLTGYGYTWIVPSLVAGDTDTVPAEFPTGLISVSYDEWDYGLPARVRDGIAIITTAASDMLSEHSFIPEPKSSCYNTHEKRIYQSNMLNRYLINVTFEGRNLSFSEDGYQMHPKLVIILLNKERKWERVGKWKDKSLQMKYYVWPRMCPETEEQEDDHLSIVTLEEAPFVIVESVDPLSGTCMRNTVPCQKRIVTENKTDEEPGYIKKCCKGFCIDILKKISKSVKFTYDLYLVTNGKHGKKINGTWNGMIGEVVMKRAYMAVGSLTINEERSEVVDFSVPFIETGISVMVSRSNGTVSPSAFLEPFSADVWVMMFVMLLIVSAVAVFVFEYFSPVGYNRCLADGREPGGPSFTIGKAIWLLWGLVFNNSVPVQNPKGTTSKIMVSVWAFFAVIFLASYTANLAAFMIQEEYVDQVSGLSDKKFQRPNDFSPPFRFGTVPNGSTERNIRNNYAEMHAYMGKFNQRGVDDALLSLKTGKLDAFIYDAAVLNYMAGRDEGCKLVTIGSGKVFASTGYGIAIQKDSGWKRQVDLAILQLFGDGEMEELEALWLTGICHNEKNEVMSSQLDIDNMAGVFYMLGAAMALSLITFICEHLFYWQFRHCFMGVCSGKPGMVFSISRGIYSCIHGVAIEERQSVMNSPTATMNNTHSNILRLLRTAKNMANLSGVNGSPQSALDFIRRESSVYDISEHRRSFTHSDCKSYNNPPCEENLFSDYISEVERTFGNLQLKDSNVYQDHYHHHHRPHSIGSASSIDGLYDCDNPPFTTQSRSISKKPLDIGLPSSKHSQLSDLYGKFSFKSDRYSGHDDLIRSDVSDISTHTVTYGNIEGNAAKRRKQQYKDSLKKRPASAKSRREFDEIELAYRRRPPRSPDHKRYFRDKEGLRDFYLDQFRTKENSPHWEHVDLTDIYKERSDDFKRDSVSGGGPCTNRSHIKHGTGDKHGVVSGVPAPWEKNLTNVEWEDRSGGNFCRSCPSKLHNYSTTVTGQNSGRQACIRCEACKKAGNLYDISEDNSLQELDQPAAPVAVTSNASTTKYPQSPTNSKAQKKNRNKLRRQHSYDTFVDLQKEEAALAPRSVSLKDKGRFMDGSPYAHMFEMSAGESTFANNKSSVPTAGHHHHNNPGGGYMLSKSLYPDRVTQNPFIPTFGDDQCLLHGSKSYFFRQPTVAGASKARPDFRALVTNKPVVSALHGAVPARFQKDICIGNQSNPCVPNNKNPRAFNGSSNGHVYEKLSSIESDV

| IC50 [4] [µM] | Structure (SMILES) | Activity [1] [%] | Activity [2] [%] | Activity [3] [%] |
| --- | --- | --- | --- | --- |
|  | O=C(NNC(=O)[C@@H]1CCC2=Nc3ccc(Cl)cc3CN21)c1ccc(O)cc1 | 22.55 | 22.58 | 16.03 |
|  | O=C(NNC(=O)[C@@H]1CCC2=Nc3ccc(Br)cc3CN21)c1ccc(F)cc1 | 19.88 | 19.48 | 23.87 |
|  | O=C(NNC(=O)[C@@H]1CCC2=Nc3ccc(Br)cc3CN21)c1ccccc1 | 20.92 | 18.22 | 7.13 |
|  | O=C(NCCc1cccc(O)c1)[C@@H]1CCC2=Nc3ccc(Br)cc3CN21 | 28.87 | 25.35 | 28.73 |
|  | O=C(NCCc1cccc(O)c1)[C@@H]1CCC2=Nc3ccccc3CN21 | 29.17 | 24.42 | 29.63 |
|  | O=C(NCCc1ccc(F)cc1)[C@@H]1CCC2=Nc3ccc(Br)cc3CN21 | 7.08 | -2.81 | 4.05 |
|  | O=C(NCCc1ccc(F)cc1)[C@@H]1CCC2=Nc3ccc(Cl)cc3CN21 | 27.96 | 26.14 | 13.45 |
|  | Nc1ccc(C(=O)NNC(=O)[C@@H]2CCC3=Nc4ccc(Br)cc4CN32)cc1 | 24.22 | 15.62 | 25.12 |
|  | Nc1ccc(C(=O)NNC(=O)[C@@H]2CCC3=Nc4ccc(Cl)cc4CN32)cc1 | 25.28 | 20.43 | 30.71 |
|  | Nc1ccc(CCNC(=O)[C@@H]2CCC3=Nc4ccc(Br)cc4CN32)cc1 | -15.08 | -11.03 | -15.74 |
|  | Nc1ccc(CCNC(=O)[C@@H]2CCC3=Nc4ccc(Cl)cc4CN32)cc1 | -16.58 | -15.32 | -5.03 |
|  | O=C(NCCc1ccc(O)cc1)[C@@H]1CCC2=Nc3ccc(Cl)cc3CN21 | 28.33 | 21.32 | 28.93 |
|  | O=C(NCCc1ccccc1)[C@@H]1CCC2=Nc3ccc(Br)cc3CN21 | 7.54 | 10.59 | 11.08 |
|  | COc1ccc(CCNC(=O)[C@@H]2CCC3=Nc4ccc(Cl)cc4CN32)cc1 | 30.19 | 30.66 | 17.35 |
|  | COc1ccc(C(=O)NNC(=O)[C@@H]2CCC3=Nc4ccc(Cl)cc4CN32)cc1 | 20.2 | 12.17 | 19.6 |
|  | O=C(NNC(=O)[C@@H]1CCC2=Nc3ccc(Cl)cc3CN21)c1ccc(F)cc1 | 20.68 | 17.26 | 22.58 |
|  | O=C(NNC(=O)[C@@H]1CCC2=Nc3ccc(Cl)cc3CN21)c1ccccc1 | 24.25 | 19.76 | 26.91 |
|  | O=C(NCCc1ccccc1)[C@@H]1CCC2=Nc3ccc(Cl)cc3CN21 | 5.78 | 10.01 | 13.21 |
|  | COc1ccc(C(=O)NNC(=O)[C@@H]2CCC3=Nc4ccccc4CN32)cc1 | 17.74 | 22.42 | 12.59 |
|  | COc1ccc(CCNC(=O)[C@@H]2CCC3=Nc4ccc(Br)cc4CN32)cc1 | 27.25 | 17.27 | 27.75 |
|  | COc1ccc(C(=O)NNC(=O)[C@@H]2CCC3=Nc4ccc(Br)cc4CN32)cc1 | 15.94 | 19.77 | 9.01 |
|  | O=C(NCCc1cccc(O)c1)[C@@H]1CCC2=Nc3ccc(Cl)cc3CN21 | 28.02 | 29.37 | 23.62 |
| 0.017 | Cc1nccn1Cc1cc(-c2ccc(F)c(C(F)F)c2)cnn1 [EVT-101 FREE BASE] |  |  |  |
|  | CC(C(O)c1ccc(O)cc1)N1CCC(Cc2ccccc2)CC1 (stereo not given) [IFENPRODIL] | 22.57 | 35.81 | 16.4 |
